# Measurements from paper PMC4714855, “Prediction of T Cell Epitopes from Leishmania major Potentially Excreted/Secreted Proteins Inducing Granzyme B Production” (PLoS ONE, 2016).
# Key:
# [1] = biological target: T1, HLA-A*0201 molecules on T2 cells (Homo sapiens, UniProt P04439, D140Y/D185E/D98H/E176V/E277Q/G131W/G231S/I119V/I121R/I166T/I218V/L300P/L318F/N151K/N90K/P208A/P217A/Q86G/Q94H/R138H/R169H/T345S); experiment: class I HLA stabilization assay on T2 cells (flow cytometry, anti-HLA-A2 antibody); type: cell-based; details: for relative fluorescence intensity (RFI), percentage increase of mean fluorescence above negative controls: T2 cells, β2-microglobulin 10μg/mL, peptide 10μg/mL (Fig 1 legend: 100μg/mL), 16h 37°C, then Brefeldin A 2h; for affinity for HLA-A2 molecule (stabilization on T2 cells), class in words: T2 cell stabilization assay
# T1 construct: endogenous in cells; host or cells: T2 cells
# Protocol: The affinity of peptides for HLA-A*0201 molecules was evaluated by using the stabilization assay as previously described. Briefly, T2 cells were incubated with human β2-microglobulin at a final concentration of 10μg/mL in the presence or not of peptides at 10μg/mL for 16h at 37°C in 5% CO2. Cells were then incubated with 5μg/mL Brefeldin A (Sigma-Aldrich, St. Louis, MO) for 2h at 37°C. Expression of HLA-A*0201 on T2 cells was then determined by staining with fluorescein isothiocyanate-labelled anti-HLA-A2 antibody (BD Biosciences, San Jose, CA) and analyzed by flow cytometry using FACScan (BD Biosciences, San Jose, CA). Results were expressed in relative fluorescence intensity (RFI) calculated as the percentage increase of the mean fluorescence above that of the negative controls.
# The sequence of 33 different clones of potentially ES proteins has been used. Based on computer software predictions, putative class I HLA-restricted T cell epitopes were identified. Twenty proteins were able to generate a total of 78 nonameric peptides that could be loaded by HLA-A*0201 molecule (Table 2). Subsequently, we have evaluated the binding affinity of these peptides to HLA-A*0201 molecules by class I HLA stabilization assay. This assay measures the increase of HLA-A*0201 molecules induced on T2 cells following exposure to exogenous HLA-A*0201 binding peptides, with high affinity peptides inducing HLA-A*0201 up-regulation more strongly than low-affinity peptides. Individual results are shown on Fig 1A. The 78 tested peptides were classified into 3 groups regarding the percentage of RFI.
# Fig 1 Binding affinity of LmES peptides to HLA-A*0201 molecules. The affinities of selected peptides were determined by class I HLA stabilization assay. (A) Results for individual peptides. T2 cells were initially incubated with 100μg (final concentration) of each of the peptides/mL for 16h at 37°C, followed by incubation at 37°C for 2h in presence of Brefeldine A. HLA-A2 expression on these cells was analyzed by flow cytometry using the BB7.2 antibody. MHC stabilization efficiency for each peptide was calculated as the percentage increase of the mean fluorescence above that of the negative controls. Results were expressed as relative fluorescence intensity (RFI). (B) Box plot results. ++: RFI ranges from 200 to 300%, +: RFI ranges from 100 to 200%, and -: RFI ranges from 0 to 100%.
# [2] = tested on: PBMCs; experiment: Granzyme B production by stimulated PBMCs (ELISA of culture supernatants); type: cell-based, human; details: PBMCs of 3 HLA-A*0201+ and 3 HLA-A*0201- immune (healed ZCL) donors, peptide 20μg/mL, 5 days; 24 peptides tested
# Protocol: To assess whether the selected peptides could stimulate or not CD8^+ T cells, we have analysed the induction of GrB and IFN-γ by stimulated PBMCs from healed ZCL individuals. PBMCs separated from heparinized blood samples using Ficoll-Hypaque (Sigma-Aldrich, St. Louis, MO) density gradient centrifugation were resuspended in RPMI 1640 medium (Sigma-Aldrich, St. Louis, MO) supplemented with 2mM L-Glutamine (Sigma-Aldrich, St. Louis, MO), 1mM sodium pyruvate (Gibco, Invitrogen, Grand Island, NY), 100U/mL Penicillin (Sigma-Aldrich, St. Louis, MO), 100μg/mL Streptomycin (Sigma-Aldrich, St. Louis, MO), 10mM HEPES (Gibco, Invitrogen, Grand Island, NY), 20μg/mL Gentamicin (Gibco, Invitrogen, Grand Island, NY), 1X non-essential amino acids (Gibco, Invitrogen, Grand Island, NY), 2-mercaptoethanol (Gibco, Invitrogen, Grand Island, NY), and 10% (v/v) heat-inactivated human AB serum (Sigma-Aldrich, St. Louis, MO), [complete medium] at a concentration of 1.0x10^6 cells/mL. Peptide pools were prepared instantly by dilution with phosphate buffered saline and then added to the cell culture at a final concentration of 1μg/mL. In some experiments, peptides were added separately to the culture at a concentration of 20μg/mL. As positive control, PBMCs were stimulated with 10ng/mL of phorbol 12-myristate 13-acetate (PMA) (Sigma-Aldrich, St. Louis, MO) and 50ng/mL Ionomycin (Sigma-Aldrich, St. Louis, MO). All cultures were incubated at 37°C in 5% CO2 for 5 days. Culture supernatants were then harvested and frozen at -80°C until use.
# Granzyme B (GrB), IFN-γ, and IL-10 levels in culture supernatants were quantified with an enzyme-linked immunosorbent (ELISA) assay (MABTECH AB, Nacka Strand, Sweden) for the first one and OptEIA set ELISA assay kit (BD Biosciences, San Jose, CA) for the others. The results were expressed as pg/mL based on the standards provided by the kits. Quantification thresholds were fixed to 100pg/mL for GrB, 45pg/mL for IFN-γ, and 20pg/mL for IL-10.
# Fig 2 Peptides grouped in pools induced GrB production. (A) PBMCs from 5 HLA-A*0201^+-donors with a history of ZCL in response to stimulation with peptide pools at a final concentration of 1μg/mL per peptide or (B) SLA (10μg/mL) and PMA/Ionomycin (10ng/mL and 50ng/mL, respectively) as positive controls. GrB production was assessed in culture supernatants using ELISA. (C) Rank of the peptide pools. +: mean pool rank, -: median.
# Fig 3 GrB induction by the selected peptides. (A) PBMCs from HLA-A*0201^+ (black mark) and HLA-A*0201^- (white mark) -healed ZCL individuals were stimulated with selected peptides separately. The supernatant was collected after 5 days of incubation and assayed for GrB production.
Sequence,"relative fluorescence intensity (RFI), percentage increase of mean fluorescence above negative controls [1]",GrB induction by individual peptides [2],"affinity for HLA-A2 molecule (stabilization on T2 cells), class in words [1]"
"ELLGNLEEV [D6, nonamer … from L. major ES protein Pr 31]",> 200%,–,–
"FMEVFGMLV [G2, nonamer … from L. major ES protein Pr 78]",> 200%,highest levels of GrB,high
"MLLWTAVAV [E1, nonamer … from L. major ES protein Pr 37]",> 200%,–,–
"MLVQSCTSI [G3, nonamer … from L. major ES protein Pr 78]",> 200%,highest levels of GrB,high
"PLSPATRRL [E6, nonamer … from L. major ES protein Pr 38]",–,highest levels of GrB,–
"SLQFSAFLL [G1, nonamer … from L. major ES protein Pr 78]",> 200%,–,–
"TLGVKQMVV [F6, nonamer … from L. major ES protein Pr 74 (elongation factor 1-alpha)]",> 200%,highest levels of GrB,high
"VVSVLTHSV [G4, nonamer … from L. major ES protein Pr 78]",–,highest levels of GrB,intermediate
"YLRTFPAAL [E2, nonamer … from L. major ES protein Pr 37]",–,highest levels of GrB,intermediate
